Assay results from the CheMixHub ionic liquid set.

Assay: xn = mol fraction of the nth substance listed

CC(C)C[C@H](N)C(=O)[O-].CCCC[P+](CCCC)(CCCC)CCCN + O
333.15 K, 101 kPa, x2 = 0
Conditions	electrical conductivity [S/m]	viscosity [mPa·s]
–	0.0413	130.5

CCCCCCCCCCCCCCCC[P+](CCCC)(CCCC)CCCC.[Br-] + O
300 K, 101 kPa
Conditions	electrical conductivity [S/m]
x2 = 0.201	0.00035
x2 = 0.302	0.00035
x2 = 0.402	0.00035
x2 = 0.502	0.00035

CCCCCC[n+]1ccn(C)c1.O=S(=O)([N-]S(=O)(=O)C(F)(F)F)C(F)(F)F + O
Conditions	electrical conductivity [S/m]
295.15 K, 101 kPa, x2 = 0.233	0.29

CCn1cc[n+](CC)c1.O=S(=O)([N-]S(=O)(=O)C(F)(F)F)C(F)(F)F + O
100 kPa, x2 = 0.2772
Conditions	viscosity [mPa·s]
318.15 K	11.04
358.15 K	4.96

Cn1cc[n+](CCO)c1.O=C([O-])C(F)(F)C(F)(F)C(F)(F)C(F)(F)F + O
101 kPa
Conditions	electrical conductivity, 298.15 K [S/m]	viscosity, 298.15 K [mPa·s]	viscosity, 308.15 K [mPa·s]	viscosity, 318.15 K [mPa·s]
x1 = 0.01954	1.86	2.373	1.881	1.521
x1 = 0.0234	1.85	2.72	2.129	1.713
x1 = 0.02752	1.82	3.1	2.403	1.914
x1 = 0.02972	1.79	3.29	2.55	2.027
x1 = 0.03222	1.76	3.67	2.8	2.204
x1 = 0.03772	1.67	4.35	3.3	2.59
x1 = 0.04078	1.61	4.62	3.5	2.73
x1 = 0.04409	1.55	4.98	3.72	2.87
x1 = 0.05152	1.42	6.18	4.57	3.51
x1 = 0.05575	1.35	6.8	5	3.8
x1 = 0.0602	1.27	7.62	5.55	4.2
x1 = 0.06471	1.2	8.23	5.97	4.49
x1 = 0.07633	1.04	9.67	6.91	5.16
x1 = 0.082	0.97	10.72	7.6	5.62
x1 = 0.08895	0.89	12.37	8.65	6.3
x1 = 0.09727	0.81	13.43	9.39	6.84
x1 = 0.1069	0.73	15.01	10.41	7.54
x1 = 0.1275	0.6	18.85	12.87	9.24
x1 = 0.1399	0.54	22.47	15.15	10.73
x1 = 0.1574	0.465	26.8	17.82	12.47
x1 = 0.1727	0.415	29.6	19.6	13.63
x1 = 0.2189	0.309	38.1	24.8	16.97
x1 = 0.2539	0.257	43.9	28.2	19.16
x1 = 0.2952	0.213	52.2	33.1	22.22
x1 = 0.3469	0.173	64.4	40.2	26.6
x1 = 0.4176	0.134	86.6	52.8	34.3
x1 = 0.5205	0.097	131.5	77.3	48.9
x1 = 0.7217	0.053	232	129.6	78.3
x1 = 1	0.0315	713	351	190.8

CCCCCCCCOS(=O)(=O)[O-].CC[n+]1ccn(C)c1 + O + O=S(=O)([O-])[O-].[K+].[K+]
101 kPa, frequency 0.0005 MHz, x2 = 0.7992, x3 = 0.000271
Conditions	electrical conductivity [S/m]
283.15 K	0.565
285.15 K	0.611
288.15 K	0.685
291.15 K	0.763
293.15 K	0.818
298.15 K	0.965
303.15 K	1.13
313.15 K	1.49
323.15 K	1.91
333.15 K	2.43
343.15 K	2.94
353.15 K	3.49
358.15 K	3.81
363.15 K	4.13

101 kPa, x2 = 0.7992, x3 = 0.000271
Conditions	viscosity [mPa·s]
298.15 K	70.4
303.15 K	54.1
308.15 K	42.26
318.15 K	26.98
328.15 K	18.12
338.15 K	12.69

CCCCCCCCOS(=O)(=O)[O-].CC[n+]1ccn(C)c1 + O + O=S(=O)([O-])[O-].[Li+].[Li+]
101 kPa, frequency 0.0005 MHz, x2 = 0.8284, x3 = 0.003275
Conditions	electrical conductivity [S/m]
283.15 K	0.479
285.15 K	0.518
287.15 K	0.561
288.15 K	0.582
289.15 K	0.605
291.15 K	0.649
293.15 K	0.698
298.15 K	0.83
303.15 K	0.975
313.15 K	1.31
323.15 K	1.68
333.15 K	2.1
343.15 K	2.62
348.15 K	2.87
358.15 K	3.41
363.15 K	3.68

101 kPa, x2 = 0.8284, x3 = 0.003275
Conditions	viscosity [mPa·s]
293.15 K	101
296.15 K	85.2
298.15 K	76.4
303.15 K	58.9
308.15 K	46.1
318.15 K	29.59
328.15 K	19.97
338.15 K	14.04
